Measurements: patent publication USRE47689E1, “Compounds for treating spinal muscular atrophy” (PTC Therapeutics, Inc., priority 2011, dated 2019)
Like-named read-outs stand apart in the source and are kept apart here.

How the values were obtained:
[1] = test system: SMN2 minigene (full length SMN2 minigene mRNA containing SMN2 exon 7); experiment: SMN2 minigene mRNA splicing RT-qPCR assay in cultured cells; assay type: cell-based, human; settings: Homo sapiens, HEK293-H, read-out: EC1.5x for production of full length SMN2 mRNA
Outline: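 Read-out: full-length (exon 7-included) SMN2 minigene mRNA by multiplex RT-qPCR with GAPDH, efficiency-corrected (1+E)^−Ct, GAPDH-normalized and divided by vehicle. Stably transfected HEK293H cells, 24 h compound exposure, duplicates per concentration. Value is EC1.5x, reported as star ranges.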

Smn protein = Smn protein assay in cultured cells (SMN HTRF); assay type: cell-based, human; settings: 48 hours; for EC1.5x (concentration giving 1.5-fold Smn protein increase): SMA Type 1 patient fibroblast cells (GM03813), 7-point concentration curve, SMN HTRF, concentration producing 1.5 times Smn protein vs DMSO vehicle control, read-out: EC1.5x for Smn protein expression; for maximum fold (Fold) increase of Smn protein: SMA patient fibroblast cells, 7-point concentration data, fold increase relative to vehicle control (SMN HTRF)
Outline: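 Lysates in RIPA with protease inhibitors are incubated overnight at room temperature with HTRF anti-SMN antibodies. EC1.5x is derived from fold increase in ΔF over vehicle.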

[2] = HEK293H cells stably transfected with SMN2-A minigene, 24 hours, 7-point concentration curve, 1.5-fold relative to vehicle-treated cells

melting point	Structure (SMILES)	EC (1.5-fold) [1, 2]	EC1.5x (concentration giving 1.5-fold Smn protein increase) (Smn protein)	maximum fold (Fold) increase of Smn protein (Smn protein)	EC (1.5-fold) ([1]; 24 h)
166 to 169 °C	CCN1CCCN(c2ccc3cc(-c4cc5c(C)nc(C)cn5c4)c(=O)oc3c2)CC1 [Compound 671, 3-(1,3-dimethylpyrrolo[1,2-a]pyrazin-7-yl)-7-(4-ethyl-1,4-diazepan-1-yl)-2H-chromen-2-one]	< 0.1 µM	< 300 nM	***** (fold increase >1.65)	–
254 to 264 °C	C[C@@H]1CN(c2ccc3cc(-c4cn5cc(C6CC6)cc(F)c5n4)c(=O)oc3c2)CCN1 [Compound 503, 3-(6-cyclopropyl-8-fluoroimidazo[1,2-a]pyridin-2-yl)-7-[(3R)-3-methylpiperazin-1-yl]-2H-chromen-2-one]	0.3 to 1 µM	–	* (maximum fold increase of ≤1.2)	–
135 to 137 °C	CC(C)NC(C)c1ccc2cc(-c3nc4ccccc4s3)c(=O)oc2c1 (stereo not drawn) [Compound 144, 3-(1,3-benzothiazol-2-yl)-7-[1-(propan-2-ylamino)ethyl]-2H-chromen-2-one]	1 to 3 µM	–	* (maximum fold increase of ≤1.2)	–
232 to 239 °C	Cc1ccn2cc(-c3cc4ccc(NC5CCNCC5)cc4oc3=O)nc2c1 [Compound 495, 3-(7-methylimidazo[1,2-a]pyridin-2-yl)-7-(piperidin-4-ylamino)-2H-chromen-2-one]	1 to 3 µM	–	* (maximum fold increase of ≤1.2)	–
278 to 283 °C	O=c1oc2cc(N3CCNCC3)cc(F)c2cc1-c1cn2ccsc2n1 [Compound 311, 5-fluoro-3-(imidazo[2,1-b][1,3]thiazol-6-yl)-7-(piperazin-1-yl)-2H-chromen-2-one]	< 0.1 µM	1000 to 3000 nM	*** (fold increase between >1.35 and ≤1.5)	–
194 to 196 °C	C[C@H]1CN(c2ccc3cc(-c4ccc(N(C)C)nc4)c(=O)oc3c2)CCN1 [Compound 548, 3-[6-(dimethylamino)pyridin-3-yl]-7-[(3S)-3-methylpiperazin-1-yl]-2H-chromen-2-one]	3 to 30 µM	–	* (maximum fold increase of ≤1.2)	–
233 to 240 °C	Cc1cc(F)c2nc(-c3cc4ccc(N5CCCN(C)CC5)cc4oc3=O)cn2c1 [Compound 355, 3-(8-fluoro-6-methylimidazo[1,2-a]pyridin-2-yl)-7-(4-methyl-1,4-diazepan-1-yl)-2H-chromen-2-one]	< 0.1 µM	300 to 1000 nM	**** (fold increase between >1.5 and ≤1.65)	–
242 to 243 °C	C[C@@H]1CN(c2ccc3cc(-c4nc5c(F)cccc5o4)c(=O)oc3c2)C[C@H](C)N1 [Compound 39, 7-[(3R,5S)-3,5-dimethylpiperazin-1-yl]-3-(4-fluoro-1,3-benzoxazol-2-yl)-2H-chromen-2-one]	0.3 to 1 µM	3000 to 10000 nM	*** (fold increase between >1.35 and ≤1.5)	–
291 to 297 °C	O=c1oc2cc(N3CCNCC3)ccc2cc1-c1nc2cncnc2[nH]1 [Compound 314, 7-(piperazin-1-yl)-3-(9H-purin-8-yl)-2H-chromen-2-one]	1 to 3 µM	–	* (maximum fold increase of ≤1.2)	–
210 to 213 °C	O=c1oc2cc(N3CCCNCC3)ccc2cc1-c1cn2cccc(F)c2n1 [Compound 357, 7-(1,4-diazepan-1-yl)-3-(8-fluoroimidazo[1,2-a]pyridin-2-yl)-2H-chromen-2-one]	0.1 to 0.3 µM	–	*** (fold increase between >1.35 and ≤1.5)	–
235 to 237 °C	COCCN1CCN(c2ccc3cc(-c4cc5cc(C)nc(C)c5o4)c(=O)oc3c2)CC1 [Compound 799, 3-(5,7-dimethylfuro[2,3-c]pyridin-2-yl)-7-[4-(2-methoxyethyl)piperazin-1-yl]-2H-chromen-2-one]	< 0.1 µM	< 300 nM	**** (fold increase between >1.5 and ≤1.65)	–
116 to 118 °C	C[C@H]1CN(c2ccc3cc(-c4cccc(F)c4F)c(=O)oc3c2)CCN1 [Compound 546, 3-(2,3-difluorophenyl)-7-[(3S)-3-methylpiperazin-1-yl]-2H-chromen-2-one]	3 to 30 µM	–	* (maximum fold increase of ≤1.2)	–
179 to 181 °C	COc1ccncc1-c1cc2ccc(N3CCNCC3)cc2oc1=O [Compound 234, 3-(4-methoxypyridin-3-yl)-7-(piperazin-1-yl)-2H-chromen-2-one]	3 to 30 µM	–	* (maximum fold increase of ≤1.2)	–
256 to 260 °C	CN1CCN(c2ccc3cc(-c4nc5c(Cl)cccc5s4)c(=O)oc3c2)CC1 [Compound 17, 3-(4-chloro-1,3-benzothiazol-2-yl)-7-(4-methylpiperazin-1-yl)-2H-chromen-2-one]	0.3 to 1 µM	–	** (fold increase between >1.2 and ≤1.35)	–
253 to 263 °C	CCc1ccn2cc(-c3cc4ccc(N5CCNCC5)cc4oc3=O)nc2c1 [Compound 287, 3-(7-ethylimidazo[1,2-a]pyridin-2-yl)-7-(piperazin-1-yl)-2H-chromen-2-one]	0.3 to 1 µM	–	* (maximum fold increase of ≤1.2)	–
206 to 208 °C	Cc1cn2cc(-c3cc4ccc(N5CC[C@@H](N(C)C)C5)cc4oc3=O)cc2cn1 [Compound 693, 7-[(3R)-3-(dimethylamino)pyrrolidin-1-yl]-3-(3-methylpyrrolo[1,2-a]pyrazin-7-yl)-2H-chromen-2-one]	< 0.1 µM	300 to 1000 nM	**** (fold increase between >1.5 and ≤1.65)	–
103 to 105 °C	COc1ccc(-c2cc3ccc(N4CCN[C@@H](C)C4)cc3oc2=O)c(OC)c1 [Compound 467, 3-(2,4-dimethoxyphenyl)-7-[(3S)-3-methylpiperazin-1-yl]-2H-chromen-2-one]	3 to 30 µM	–	* (maximum fold increase of ≤1.2)	–

Structure (SMILES)	melting point	EC (1.5-fold) [1, 2]	EC1.5x (concentration giving 1.5-fold Smn protein increase) (Smn protein)	maximum fold (Fold) increase of Smn protein (Smn protein)	EC (1.5-fold) ([1]; 24 h)
O=c1oc2cc(N3CCNCC3)ccc2cc1-c1cccc(F)c1 [Compound 26, 3-(3-fluorophenyl)-7-(piperazin-1-yl)-2H-chromen-2-one]	148 to 150 °C	–	–	* (maximum fold increase of ≤1.2)	1 to 3 µM
O=c1oc2cc(N3CCN4CCC3CC4)ccc2cc1-c1cn2cccnc2n1 [Compound 440, 7-(1,4-diazabicyclo[3.2.2]non-4-yl)-3-(imidazo[1,2-a]pyrimidin-2-yl)-2H-chromen-2-one]	> 300 °C	–	–	* (maximum fold increase of ≤1.2)	1 to 3 µM
